Assay results: ChEMBL document CHEMBL4813981, “Synthesis and in vitro antibacterial activity of new aminothiazole-oximepiperidone cephalosporins” (2021)
In brackets after ≈: the same amount, converted by molar mass.

Key:
Format in all cases: functional
[1] = tested on: Klebsiella aerogenes; test: Antibacterial activity against Enterobacter aerogenes 17-5 assessed as reduction in bacterial growth
[2] = tested on: Enterobacter cloacae; test: Antibacterial activity against Enterobacter cloacae 17-1 assessed as reduction in bacterial growth
[3] = tested on: Pseudomonas aeruginosa; test: Antibacterial activity against Carbapenem- resistant Pseudomonas aeruginosa 17-5 assessed as reduction in bacterial growth
[4] = tested on: Klebsiella pneumoniae; test: Antibacterial activity against Carbapenem- sensitive Klebsiella pneumoniae 17-4 overexpressing extended spectrum beta-lactamases assessed as reduction in bacterial growth
[5] = tested on: Pseudomonas aeruginosa; test: Antibacterial activity against Pseudomonas aeruginosa ATCC 27853 assessed as reduction in bacterial growth
[6] = tested on: Enterobacter cloacae; test: Antibacterial activity against Enterobacter cloacae 17-2 assessed as reduction in bacterial growth
[7] = tested on: Pseudomonas aeruginosa; test: Antibacterial activity against Carbapenem- sensitive Pseudomonas aeruginosa 17-26 assessed as reduction in bacterial growth
[8] = tested on: Klebsiella pneumoniae; test: Antibacterial activity against Carbapenem- resistant Klebsiella pneumoniae KR 15-5 assessed as reduction in bacterial growth
[9] = tested on: Escherichia coli; test: Antibacterial activity against ESBLs positive Carbapenem-sensitive Escherichia coli 17-14 assessed as reduction in bacterial growth
[10] = tested on: Escherichia coli; test: Antibacterial activity against ESBLs negative Carbapenem-sensitive Escherichia coli 17-7 assessed as reduction in bacterial growth
[11] = tested on: Klebsiella pneumoniae; test: Antibacterial activity against Carbapenem- resistant Klebsiella pneumoniae KR 15-13 assessed as reduction in bacterial growth
[12] = tested on: Klebsiella pneumoniae; test: Antibacterial activity against ESBLs negative Carbapenem-sensitive Klebsiella pneumonia 15-2 assessed as reduction in bacterial growth
[13] = tested on: Pseudomonas aeruginosa; test: Antibacterial activity against Carbapenem- resistant Pseudomonas aeruginosa 17-1 assessed as reduction in bacterial growth
[14] = tested on: Klebsiella pneumoniae; test: Antibacterial activity against Carbapenem- sensitive Klebsiella pneumoniae 17-7 overexpressing extended spectrum beta-lactamases assessed as reduction in bacterial growth
[15] = tested on: Klebsiella aerogenes; test: Antibacterial activity against Enterobacter aerogenes 17-1 assessed as reduction in bacterial growth
[16] = tested on: Escherichia coli; test: Antibacterial activity against ESBLs positive Carbapenem-sensitive Escherichia coli 17-2 assessed as reduction in bacterial growth
[17] = tested on: Escherichia coli; test: Antibacterial activity against Escherichia coli NCTC 13353 assessed as reduction in bacterial growth
[18] = tested on: Escherichia coli; test: Antibacterial activity against ESBLs positive Carbapenem-sensitive Escherichia coli 17-8 assessed as reduction in bacterial growth
[19] = tested on: Klebsiella pneumoniae; test: Antibacterial activity against Carbapenem- resistant Klebsiella pneumoniae KR 15-8 assessed as reduction in bacterial growth
[20] = tested on: Escherichia coli; test: Antibacterial activity against ESBLs positive Carbapenem-sensitive Escherichia coli 17-18 assessed as reduction in bacterial growth
[21] = tested on: Escherichia coli; test: Antibacterial activity against ESBLs positive Carbapenem-sensitive Escherichia coli 17-22 assessed as reduction in bacterial growth
[22] = tested on: Acinetobacter baumannii; test: Antibacterial activity against Carbapenem- resistant Acinetobacter baumannii 17-11 assessed as reduction in bacterial growth
[23] = tested on: Enterobacter cloacae; test: Antibacterial activity against Enterobacter cloacae 17-7 assessed as reduction in bacterial growth
[24] = tested on: Acinetobacter baumannii; test: Antibacterial activity against Carbapenem- resistant Acinetobacter baumannii 17-13 assessed as reduction in bacterial growth
[25] = tested on: Klebsiella pneumoniae; test: Antibacterial activity against Carbapenem- resistant Klebsiella pneumoniae KR 15-10 assessed as reduction in bacterial growth
[26] = tested on: Klebsiella aerogenes; test: Antibacterial activity against Enterobacter aerogenes 15-7 assessed as reduction in bacterial growth
[27] = tested on: Acinetobacter baumannii; test: Antibacterial activity against Carbapenem- resistant Acinetobacter baumannii 17-9 assessed as reduction in bacterial growth
[28] = tested on: Klebsiella pneumoniae; test: Antibacterial activity against Carbapenem- sensitive Klebsiella pneumoniae 17-8 overexpressing extended spectrum beta-lactamases assessed as reduction in bacterial growth
[29] = tested on: Escherichia coli; test: Antibacterial activity against Escherichia coli ATCC 25922 assessed as reduction in bacterial growth
[30] = tested on: Escherichia coli; test: Antibacterial activity against ESBLs positive Carbapenem-sensitive Escherichia coli 17-21 assessed as reduction in bacterial growth
[31] = tested on: Escherichia coli; test: Antibacterial activity against ESBLs positive Carbapenem-sensitive Escherichia coli 17-6 assessed as reduction in bacterial growth
[32] = tested on: Klebsiella aerogenes; test: Antibacterial activity against Enterobacter aerogenes 15-6 assessed as reduction in bacterial growth
[33] = tested on: Acinetobacter baumannii; test: Antibacterial activity against Acinetobacter baumannii NCTC 13304 assessed as reduction in bacterial growth
[34] = tested on: Acinetobacter baumannii; test: Antibacterial activity against Carbapenem- resistant Acinetobacter baumannii 17-12 assessed as reduction in bacterial growth
[35] = tested on: Escherichia coli; test: Antibacterial activity against ESBLs negative Carbapenem-sensitive Escherichia coli 17-16 assessed as reduction in bacterial growth
[36] = tested on: Klebsiella pneumoniae; test: Antibacterial activity against Carbapenem- resistant Klebsiella pneumoniae KR 15-7 assessed as reduction in bacterial growth
[37] = tested on: Acinetobacter baumannii; test: Antibacterial activity against Carbapenem- resistant Acinetobacter baumannii 17-6 assessed as reduction in bacterial growth
[38] = tested on: Klebsiella pneumoniae; test: Antibacterial activity against Carbapenem- resistant Klebsiella pneumoniae KR 15-11 assessed as reduction in bacterial growth
[39] = tested on: Klebsiella pneumoniae; test: Antibacterial activity against ESBLs negative Carbapenem-sensitive Klebsiella pneumoniae 17-17 assessed as reduction in bacterial growth
[40] = tested on: Pseudomonas aeruginosa; test: Antibacterial activity against Carbapenem- resistant Pseudomonas aeruginosa 17-8 assessed as reduction in bacterial growth
[41] = tested on: Klebsiella aerogenes; test: Antibacterial activity against Enterobacter aerogenes 17-2 assessed as reduction in bacterial growth
[42] = tested on: Klebsiella pneumoniae; test: Antibacterial activity against Carbapenem- sensitive Klebsiella pneumoniae 17-3 overexpressing extended spectrum beta-lactamases assessed as reduction in bacterial growth
[43] = tested on: Klebsiella pneumoniae; test: Antibacterial activity against Carbapenem- resistant Klebsiella pneumoniae KR 15-6 assessed as reduction in bacterial growth
[44] = tested on: Acinetobacter baumannii; test: Antibacterial activity against Carbapenem- resistant Acinetobacter baumannii 17-8 assessed as reduction in bacterial growth
[45] = tested on: Klebsiella aerogenes; test: Antibacterial activity against Enterobacter aerogenes 15-3 assessed as reduction in bacterial growth
[46] = tested on: Acinetobacter baumannii; test: Antibacterial activity against Carbapenem- resistant Acinetobacter baumannii 17-10 assessed as reduction in bacterial growth
[47] = tested on: Escherichia coli; test: Antibacterial activity against ESBLs positive Carbapenem-sensitive Escherichia coli 17-12 assessed as reduction in bacterial growth
[48] = tested on: Klebsiella aerogenes; test: Antibacterial activity against Enterobacter aerogenes 15-5 assessed as reduction in bacterial growth
[49] = tested on: Klebsiella pneumoniae; test: Antibacterial activity against Carbapenem- sensitive Klebsiella pneumoniae 17-2 overexpressing extended spectrum beta-lactamases assessed as reduction in bacterial growth
[50] = tested on: Pseudomonas aeruginosa; test: Antibacterial activity against Carbapenem- sensitive Pseudomonas aeruginosa 17-24 assessed as reduction in bacterial growth
[51] = tested on: Klebsiella pneumoniae; test: Antibacterial activity against ESBLs negative Carbapenem-sensitive Klebsiella pneumoniae 17-18 assessed as reduction in bacterial growth
[52] = tested on: Escherichia coli; test: Antibacterial activity against ESBLs negative Carbapenem-sensitive Escherichia coli 17-1 assessed as reduction in bacterial growth
[53] = tested on: Pseudomonas aeruginosa; test: Antibacterial activity against Carbapenem- sensitive Pseudomonas aeruginosa 17-22 assessed as reduction in bacterial growth
[54] = tested on: Klebsiella pneumoniae; test: Antibacterial activity against Carbapenem- sensitive Klebsiella pneumoniae 17-11 overexpressing extended spectrum beta-lactamases assessed as reduction in bacterial growth
[55] = tested on: Acinetobacter baumannii; test: Antibacterial activity against Carbapenem- resistant Acinetobacter baumannii 17-2 assessed as reduction in bacterial growth

CC(C)(O/N=C(\C(=O)N[C@@H]1C(=O)N2C(C(=O)[O-])=C(C[n+]3ccccc3)CS[C@H]12)c1csc(N)n1)C(=O)O [CEFTAZIDIME]
MIC [1]: 16 µg/mL (≈ 29.3 µM) | MIC [2]: 0.5 µg/mL (≈ 0.915 µM) | MIC [3]: 64 µg/mL (≈ 117 µM) | MIC [4]: > 64 µg/mL | MIC [5]: 1 µg/mL (≈ 1.83 µM) | MIC [6]: 64 µg/mL (≈ 117 µM) | MIC [7]: 1 µg/mL (≈ 1.83 µM) | MIC [8]: > 64 µg/mL | MIC [9]: 16 µg/mL (≈ 29.3 µM) | MIC [10]: 0.125 µg/mL (≈ 0.229 µM) | MIC [11]: 64 µg/mL (≈ 117 µM) | MIC [12]: 0.125 µg/mL (≈ 0.229 µM) | MIC [13]: 32 µg/mL (≈ 58.5 µM) | MIC [14]: > 64 µg/mL | MIC [15]: 8 µg/mL (≈ 14.6 µM) | MIC [16]: 2 µg/mL (≈ 3.66 µM) | MIC [17]: 64 µg/mL (≈ 117 µM) | MIC [18]: 16 µg/mL (≈ 29.3 µM) | MIC [19]: > 64 µg/mL | MIC [20]: 2 µg/mL (≈ 3.66 µM) | MIC [21]: > 64 µg/mL | MIC [22]: 32 µg/mL (≈ 58.5 µM) | MIC [23]: > 64 µg/mL | MIC [24]: > 64 µg/mL | MIC [25]: > 64 µg/mL | MIC [26]: 16 µg/mL (≈ 29.3 µM) | MIC [27]: > 64 µg/mL | MIC [28]: > 64 µg/mL | MIC [29]: 0.06 µg/mL (≈ 0.11 µM) | MIC [30]: 8 µg/mL (≈ 14.6 µM) | MIC [31]: 32 µg/mL (≈ 58.5 µM) | MIC [32]: 8 µg/mL (≈ 14.6 µM) | MIC [33]: 64 µg/mL (≈ 117 µM) | MIC [34]: 64 µg/mL (≈ 117 µM) | MIC [35]: 0.5 µg/mL (≈ 0.915 µM) | MIC [36]: > 64 µg/mL | MIC [37]: > 64 µg/mL | MIC [38]: > 64 µg/mL | MIC [39]: 0.125 µg/mL (≈ 0.229 µM) | MIC [40]: 32 µg/mL (≈ 58.5 µM) | MIC [41]: 16 µg/mL (≈ 29.3 µM) | MIC [42]: > 64 µg/mL | MIC [43]: 32 µg/mL (≈ 58.5 µM) | MIC [44]: > 64 µg/mL | MIC [45]: > 64 µg/mL | MIC [46]: 32 µg/mL (≈ 58.5 µM) | MIC [47]: 8 µg/mL (≈ 14.6 µM) | MIC [48]: 16 µg/mL (≈ 29.3 µM) | MIC [49]: 2 µg/mL (≈ 3.66 µM) | MIC [50]: 2 µg/mL (≈ 3.66 µM) | MIC [51]: 0.125 µg/mL (≈ 0.229 µM) | MIC [52]: 64 µg/mL (≈ 117 µM) | MIC [53]: 0.5 µg/mL (≈ 0.915 µM) | MIC [54]: 8 µg/mL (≈ 14.6 µM) | MIC [55]: > 64 µg/mL

Nc1nc(/C(=N/OCc2cc(=O)c(O)cn2O)C(=O)N[C@@H]2C(=O)N3C(C(=O)O)=CCS[C@H]23)cs1
MIC [1]: 64 µg/mL (≈ 126 µM) | MIC [2]: 1 µg/mL (≈ 1.97 µM) | MIC [3]: 64 µg/mL (≈ 126 µM) | MIC [4]: > 64 µg/mL | MIC [5]: 1 µg/mL (≈ 1.97 µM) | MIC [6]: > 64 µg/mL | MIC [7]: 2 µg/mL (≈ 3.93 µM) | MIC [8]: > 64 µg/mL | MIC [9]: 64 µg/mL (≈ 126 µM) | MIC [10]: 2 µg/mL (≈ 3.93 µM) | MIC [11]: > 64 µg/mL | MIC [12]: 0.06 µg/mL (≈ 0.118 µM) | MIC [13]: 32 µg/mL (≈ 62.9 µM) | MIC [14]: > 64 µg/mL | MIC [15]: 32 µg/mL (≈ 62.9 µM) | MIC [16]: 2 µg/mL (≈ 3.93 µM) | MIC [17]: > 64 µg/mL | MIC [18]: 16 µg/mL (≈ 31.5 µM) | MIC [19]: > 64 µg/mL | MIC [20]: 8 µg/mL (≈ 15.7 µM) | MIC [21]: > 64 µg/mL | MIC [22]: > 64 µg/mL | MIC [23]: > 64 µg/mL | MIC [24]: > 64 µg/mL | MIC [25]: > 64 µg/mL | MIC [26]: 4 µg/mL (≈ 7.87 µM) | MIC [27]: > 64 µg/mL | MIC [28]: > 64 µg/mL | MIC [29]: 0.5 µg/mL (≈ 0.983 µM) | MIC [30]: 64 µg/mL (≈ 126 µM) | MIC [31]: 32 µg/mL (≈ 62.9 µM) | MIC [32]: 16 µg/mL (≈ 31.5 µM) | MIC [33]: > 64 µg/mL | MIC [34]: > 64 µg/mL | MIC [35]: 2 µg/mL (≈ 3.93 µM) | MIC [36]: > 64 µg/mL | MIC [37]: > 64 µg/mL | MIC [38]: > 64 µg/mL | MIC [39]: 0.125 µg/mL (≈ 0.246 µM) | MIC [40]: 32 µg/mL (≈ 62.9 µM) | MIC [41]: 64 µg/mL (≈ 126 µM) | MIC [42]: > 64 µg/mL | MIC [43]: 16 µg/mL (≈ 31.5 µM) | MIC [44]: > 64 µg/mL | MIC [45]: > 64 µg/mL | MIC [46]: > 64 µg/mL | MIC [47]: 4 µg/mL (≈ 7.87 µM) | MIC [48]: 8 µg/mL (≈ 15.7 µM) | MIC [49]: 2 µg/mL (≈ 3.93 µM) | MIC [50]: 4 µg/mL (≈ 7.87 µM) | MIC [51]: ≤ 0.03 µg/mL | MIC [52]: 32 µg/mL (≈ 62.9 µM) | MIC [53]: 1 µg/mL (≈ 1.97 µM) | MIC [54]: > 64 µg/mL | MIC [55]: > 64 µg/mL
